Test results taken from US20220125877A1, “METHOD FOR TREATING COLORECTAL CANCER” (SUN YAT-SEN UNIVERSITY, priority 2019, published 2022).

What was measured:
[1] = system: LoVo cell line with knock-down KRAS protein; experiment: Cell viability in KRAS knock-down cells; type: cell-based, human; details: relative to LoVo, FIG. 8D
Procedure: The cells were inoculated on a plate according to the concentration of 5000 cells/well (48-well plate, 200 μl per well). The cells were treated with different ways according to the experimental requirements, and 10 μl CCK8 solution was added after a period of time. The cells were incubated for 1 h in an incubator; 200 μl supernatant were absorbed into a 96-well ELISA plate to determine OD450 with a microplate reader.

[2] = system: KRAS mutation CRC cells LoVo; experiment: Plate clone formation; type: cell-based, human; details: FIGS. 8A-B
Procedure: (§1) 1) Cell inoculation: the culture solution was absorbed and discarded to collect the cells, then the cells were suspended in a treatment condition culture solution, and counted for 3 times to obtain a mean value, then the concentration of a cell suspension was adjusted to 1×10^3/ml. 2.5 ml treatment condition culture solution was respectively added to per well of a 6-well culture plate; 0.5 ml cell suspension (namely, 500 cells per well) was added per well with a final volume of 3 ml. Note that the culture plate was shaken repeatedly according to a cross-shaped direction during inoculation, such that the cells were distributed evenly as much as possible.
(§2) 3) Clone staining: the culture was stopped when the cells formed visible clones (the number of cloned cells per well was about 50-150) by the naked eyes. The culture medium was discarded, and the clones were soaked and washed for twice with PBS carefully, 1.5 ml 4% paraformaldehyde was respectively added per well for immobilization for 15 min; then the immobilization solution was discarded, and the clones were cleaned with running water slowly; 1.5 ml crystal violet working solution was added per well, standing at room temperature, and the clones were stained for 30 min, and the staining solution was cleaned with running water slowly, then the remaining clones were dried in a draught cupboard. […]

[3] = system: KRAS wildtype CRC cells SW48; experiment: Plate clone formation; type: cell-based, human; details: FIGS. 8A-B
Procedure: as §1, §2

[4] = system: metastatic colorectal cancer (mCRC) patients with T2DM; experiment: Retrospective study of OS and PFS of first-line chemotherapy in mCRC patients with T2DM (Kaplan-Meier, stratified Cox proportional hazard model), SYSUCC 2004-2016; type: in vivo, human
Excerpt: General clinical characteristics of the patients, such as, sex, age and body mass index (BMI) and the clinical characteristics affecting mCRC prognosis in the existing research reports (such as, primary tumor site, pathological grading, metastatic site, first-line chemotherapy regimen and KRAS genotype) were collected to exclude confounding factors, thus making the influences of metformin on the overall survival (OS) of the mCRC patients with T2DM and the progression free survival (PFS) of the first-line chemotherapy clear.
GraphPad Prism 7 was used to draw a Kaplan-Meier curve, and Log-rank (Mantel-Cox) statistical analysis was performed; stratified HR was additionally used to make a statistics on the influences on OS and PFS between different hypoglycemic agents use and the without anti-diabetic treatments.
A stratified Cox proportional hazard model was used for stratification on the above collected clinical characteristics to explore the individual factors influencing the efficacy of metformin.
After through the proportional hazard assumption, it is further assumed that sex, age, BMI, primary tumor site, pathological grading, metastatic site, and KRAS genotype may serve as confounding factors to make an impact on the anti-tumor effect of metformin. Therefore, hierarchical regression analysis was performed on the above clinical characteristics, thus determining the individual difference interacting with metformin.

[5] = system: KRAS mutation CRC cells LoVo; experiment: Cell cycle, PI/RNase staining, flow cytometry; type: cell-based, human; details: 24 h, FIG. 8C
Procedure: (§3) 1) The cells were inoculated onto a 6-well plate, and subjected to adherence growth for 12 h, then starvation treatment over the night, and treated with the addition of an agent for 24 h, then the cells were digested and washed for 3 times with PBS and centrifuged to discard supernatant; −20° C. pre-cooled 70% ethanol was added dropwise, and the cells were mixed well by vortex, and immobilized over the night at −20° C.
(§4) 2) The cells were horizontally centrifuged for 10 min at 2000 rpm to discard the supernatant; then the cells were washed with PBS for 2-3 times to remove the residual ethanol with centrifugation for 5 min each time.
(§5) 3) The cells were resuspended by 500 μL PI/RNase dyeing liquor, and incubated for 15 min in the dark, and put on a flow cytometry within 2 h for detection, and 488 nm wavelength was stimulated.
(§6) 4) FlowJo 7.6 software was used for graphing analysis.

[6] = system: KRAS wildtype CRC cells SW48; experiment: Cell cycle, PI/RNase staining, flow cytometry; type: cell-based, human; details: 24 h, FIG. 8C
Procedure: as §3, §4, §5, §6

[7] = system: LoVo cell line with knock-down KRAS protein; experiment: Cell cycle in KRAS knock-down cells; type: cell-based, human; details: relative to LoVo, FIG. 8D
Procedure: 1) KRAS interference lentivirus (sh-KRAS) was constructed and packaged by Shanghai Genechem Co., LTD.
2) LoVo cells were subcultured to a 6-well plate (about 1×10^5/well), when cells were subjected to adherence growth, and the degree of cell fusion was not greater than 50%, fresh culture solution was replaced ahead of 2 h, and 10 μg/mL lentivirus infection enhancer polybrene was added. Multiplicity of Infection (MOI) of LoVo was about 20; lentivirus was added according to the formula: adding amount of lentivirus per well (μl)=MOI×cell population/titer (TU/ml)×1000. The culture solution was replaced after 16-18 h, and 1 μM puromycin was conventionally added for screening the cell line whose RNA stable expression was interfered by KRAS.
as §3
2) The cells were horizontally centrifuged for 10 min at 2000 rpm to discard the supernatant; then the cells were washed with PBS for 2-3 times to remove the residual ethanol with centrifugation for 5 min each time. […]

[8] = Concentration of metformin in tumor tissues by mass spectrometry; type: in vivo; details: KRAS mutation vs KRAS wildtype tumor tissues, FIG. 11F
Excerpt: The concentration of metformin in KRAS wildtype and mutation tumor tissues was detected by mass spectrometry.

[9] = metformin use vs non-metformin use, Age at diagnosis <60 years
[10] = metformin use vs non-metformin use, Age at diagnosis ≥60 years
[11] = metformin use vs non-metformin use, BMI Normal (18.5~23.0)
[12] = metformin use vs non-metformin use, BMI Pre- & obese (>23.0)
[13] = metformin use vs non-metformin use, KRAS genotype Wildtype
[14] = metformin use vs non-metformin use, Metastatic site Liver
[15] = metformin use vs non-metformin use, Metastatic site Multiple sites
[16] = metformin use vs non-metformin use, Moderately differentiated
[17] = metformin use vs non-metformin use, Poorly & un-differentiated
[18] = metformin use vs non-metformin use, Primary site Left colon
[19] = metformin use vs non-metformin use, Primary site Rectum
[20] = metformin use vs non-metformin use, Primary site Right colon
[21] = metformin use vs non-metformin use, Sex: Female
[22] = metformin use vs non-metformin use, Sex: Male
[23] = vs nonusers of hypoglycemic agents, stratified by age at diagnosis, adjusted for sex, BMI, primary site, metastatic site, pathological grading, KRAS genotype

In the case of `CN(C)C(=N)N=C(N)N` [metformin], the “inhibiting effect on cell viability after interference of KRAS (G13D) expression” value [1] is reported as “down-regulate the inhibiting effect”, the clone formation [2] is reported as “inhibits the clone formation” and the clone formation [3] is reported as “no obvious effect”. The “overall survival, Kaplan-Meier curve” value ([4]; KRAS mutation mCRC patients, P<0.001, FIGS. 3A-B) was “significantly extends”, the “progression free survival of first-line chemotherapy, Kaplan-Meier curve” value ([4]; KRAS mutation mCRC patients, P<0.01, FIGS. 3A-B) was “significantly extends” and the “efficacy on OS and PFS, Kaplan-Meier curve” value ([4]; KRAS wildtype mCRC patients, FIGS. 3C-D) was “has no efficacy”. The “extension of median survival” value ([4]; Kaplan-Meier, mCRC patients with T2DM, P=0.022, FIG. 2) was 11.3 months, the “OS HR (95% CI)” value [4, 9] was 0.869 and the “PFS HR (95% CI)” value [4, 9] was 1.074. For the same compound, the “OS HR (95% CI)” value [4, 10] was 0.596, the “PFS HR (95% CI)” value [4, 10] was 0.562 and the “OS HR (95% CI)” value [4, 11] was 0.582. The “PFS HR (95% CI)” value [4, 11] was 0.884, the “OS HR (95% CI)” value [4, 12] was 0.702 and the “PFS HR (95% CI)” value [4, 12] was 0.555. The “OS HR (95% CI)” value [4, 13] was 1.487, the “PFS HR (95% CI)” value [4, 13] was 1.194 and the “OS HR (95% CI)” value [4, 14] was 1.151. For the same compound, the “PFS HR (95% CI)” value [4, 14] was 0.949, the “OS HR (95% CI)” value [4, 15] was 1.008 and the “PFS HR (95% CI)” value [4, 15] was 0.818. The “OS HR (95% CI)” value [4, 16] was 0.676, the “PFS HR (95% CI)” value [4, 16] was 0.644 and the “OS HR (95% CI)” value [4, 17] was 0.629. The “PFS HR (95% CI)” value [4, 17] was 0.811, the “OS HR (95% CI)” value [4, 18] was 0.982 and the “PFS HR (95% CI)” value [4, 18] was 0.823. The “OS HR (95% CI)” value [4, 19] was 0.475, the “PFS HR (95% CI)” value [4, 19] was 0.544 and the “OS HR (95% CI)” value [4, 20] was 0.729. The “PFS HR (95% CI)” value [4, 20] was 0.622, the “OS HR (95% CI)” value [4, 21] was 0.944 and the “PFS HR (95% CI)” value [4, 21] was 0.697. The “OS HR (95% CI)” value [4, 22] was 0.673, the “PFS HR (95% CI)” value [4, 22] was 0.732 and the “OS HR (95% CI)” value [4, 23] was 0.356. For the same compound, the “PFS HR (95% CI)” value [4, 23] was 0.630, the “ratio of phase S cells” value [5] was “reduces” and the “ratio of G1 cells” value ([5]; concentration dependent) was “dependently increases”. For the same compound, the “cell cycle distribution (G1, phase S)” value [6] was “no obvious effect”, the “inhibiting effect on transformation from G1 phase to phase S after interference of KRAS (G13D) expression” value [7] was “down-regulate the inhibiting effect” and the “concentration of metformin in tumor tissues” value [8] was “higher than that in the KRAS wildtype tumor tissues”.
